The structures appear in SMILES notation. ≈ marks a conversion by molar mass, not a printed value. Where “and” joins values, the source holds several entries; their conditions need not be identical. Identical values can stand only once. A value given as a limit tells only on which side of the number the result lay.

By MIC is commonly meant the lowest concentration found to suppress growth. For orientation: MBC means the smallest concentration meeting the test's criterion for killing. By inhibition is commonly meant the relative decrease from the control value, in per cent.

Assay [1] concerns Staphylococcus aureus. The assay can be described thus: Antimicrobial activity against Methicillin sensitive Staphylococcus aureus assessed as bacterial growth inhibition incubated for 18 hrs. The assay is classed as functional.
Assay [2] relates to Staphylococcus aureus. The assay can be described thus: Antimicrobial activity against Staphylococcus aureus 209 assessed as bacterial growth inhibition. Type of assay: functional.
Assay [3] concerns Staphylococcus aureus. The assay can be described thus: Antimicrobial activity against Methicillin-resistant Staphylococcus aureus CCARM 3506 assessed as bacterial growth inhibition incubated for 24 hrs by ELISA assay. The assay is classed as functional.
The subject of assay [4] is Staphylococcus aureus. The assay can be described thus: Antimicrobial activity against Methicillin-resistant Staphylococcus aureus ATCC 43300 assessed as bacterial growth inhibition. Type of assay: functional.
The subject of assay [5] is Staphylococcus aureus. The assay can be described thus: Antimicrobial activity against Methicillin-resistant Staphylococcus aureus ATCC 3167 assessed as bacterial growth inhibition. The assay is classed as functional.
For assay [6], the system named is Staphylococcus aureus. Description: Antimicrobial activity against Methicillin-resistant Staphylococcus aureus ATCC 700699 assessed as bacterial growth inhibition incubated for 20 to 24 hrs by microdilution method. The assay is classed as functional. To be noted: time 20-24 hrs.
Assay [7] has as its system Staphylococcus aureus. Description: Antimicrobial activity against Methicillin-resistant Staphylococcus aureus MW2 assessed as bacterial growth inhibition incubated for 18 hrs by microdilution method. The assay is classed as functional.
The test system of assay [8] is Staphylococcus aureus. The assay can be described thus: Antimicrobial activity against vancomycin intermediate-resistant Staphylococcus aureus assessed as bacterial growth inhibition incubated for 24 hrs by microdilution method. The assay is classed as functional. (In general: Dilution methods test growth across graded concentrations, often in twofold steps.)
In assay [9] the test system is Staphylococcus aureus. Description: Antimicrobial activity against Methicillin-sensitive Staphylococcus aureus ATCC 43300 assessed as bacterial growth inhibition incubated for 24 hrs. Type of assay: functional. To be noted: ATCC43300.
Assay [10] concerns Staphylococcus aureus. Description: Antimicrobial activity against Methicillin-sensitive Staphylococcus aureus ATCC 33591 assessed as bacterial growth inhibition by microbroth serial dilution method. The assay is classed as functional.
Assay [11] has as its system Staphylococcus aureus. Description: Antimicrobial activity against Methicillin-sensitive Staphylococcus aureus ATCC 33591 assessed as bacterial growth inhibition incubated for 24 hrs. The assay is classed as functional.
In assay [12] the test system is Staphylococcus aureus. The assay can be described thus: Antimicrobial activity against Methicillin-sensitive Staphylococcus aureus ATCC 43300 assessed as bacterial growth inhibition by microbroth serial dilution method. The assay is classed as functional.
In assay [13] the target is T1, Dihydrofolate reductase (Homo sapiens) (UniProt P00374).
T1 sequence (whole entry): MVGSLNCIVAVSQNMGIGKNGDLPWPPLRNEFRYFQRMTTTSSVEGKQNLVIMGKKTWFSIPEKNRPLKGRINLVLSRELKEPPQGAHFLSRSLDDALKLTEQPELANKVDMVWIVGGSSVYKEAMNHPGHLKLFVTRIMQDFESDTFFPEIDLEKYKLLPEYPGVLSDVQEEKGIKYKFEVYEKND
The assay can be described thus: Inhibition of human DHFR using TMB as substrate incubated for 1.5 hrs by ELISA assay relative to control. To be noted: concentration not given here. Background: An ELISA detects its analyte on a solid surface through an enzyme-linked reagent.

Assay [14] has as its system Staphylococcus aureus. Description: Antimicrobial activity against Methicillin-resistant Staphylococcus aureus assessed as bacterial growth inhibition incubated for 24 hrs. Type of assay: functional.
Assay [15] deals with Staphylococcus aureus. The assay can be described thus: Antimicrobial activity against Methicillin-resistant Staphylococcus aureus assessed as bacterial growth inhibition by agar well diffusion method. The assay is classed as functional. Background: In agar diffusion tests the substance spreads into inoculated agar from a disc or well.
Assay [16] deals with Staphylococcus aureus. The assay can be described thus: Antimicrobial activity against Methicillin-resistant Staphylococcus aureus assessed as bacterial growth inhibition by microtiter dilution plate method. Type of assay: functional.
Assay [17] deals with Staphylococcus aureus. The assay can be described thus: Antimicrobial activity against Methicillin-resistant Staphylococcus aureus BFSA33 assessed as bacterial growth inhibition by microdilution method. Type of assay: functional. To be noted: BFA33.
The test system of assay [18] is Staphylococcus aureus. Description: Antimicrobial activity against Methicillin-resistant Staphylococcus aureus BFSA48 assessed as bacterial growth inhibition by microdilution method. Type of assay: functional. To be noted: BFA48.
The subject of assay [19] is Staphylococcus aureus. The assay can be described thus: Antimicrobial activity against Methicillin-resistant Staphylococcus aureus BFSA31 assessed as bacterial growth inhibition by microdilution method. To be noted: BFA31. Type of assay: functional.
The subject of assay [20] is Staphylococcus aureus. Description: Antimicrobial activity against Methicillin-resistant Staphylococcus aureus BFSA25 assessed as bacterial growth inhibition by microdilution method. To be noted: BFA25. Type of assay: functional.
Assay [21] has as its system Staphylococcus aureus. Description: Antimicrobial activity against Methicillin-resistant Staphylococcus aureus BFSA30 assessed as bacterial growth inhibition by microdilution method. Type of assay: functional. To be noted: BFA30.
The subject of assay [22] is Staphylococcus aureus. The assay can be described thus: Antimicrobial activity against Methicillin-resistant Staphylococcus aureus BFSA32 assessed as bacterial growth inhibition by microdilution method. Type of assay: functional. To be noted: BFA32.
Assay [23] deals with Staphylococcus aureus. The assay can be described thus: Antimicrobial activity against Methicillin-resistant Staphylococcus aureus ATCC BAA 1683 assessed as bacterial growth inhibition incubated for 18 hrs by microdilution method. Type of assay: functional.
Another assay concerns Escherichia coli. Description: Antimicrobial activity against Escherichia coli ATCC 8739 assessed as bacterial growth inhibition incubated for 18 hrs by microdilution method. The assay is classed as functional.
The test system of assay [24] is Staphylococcus aureus. The assay can be described thus: Antimicrobial activity against Methicillin-resistant Staphylococcus aureus assessed as bacterial growth inhibition. The assay is classed as functional.
Assay [25] concerns Salmonella enterica subsp. enterica. Description: Antimicrobial activity against Salmonella typhimurium […] assessed as bacterial growth inhibition incubated for 18 hrs by microdilution method. Type of assay: functional.
The next assay relates to Pseudomonas aeruginosa. The assay can be described thus: Antimicrobial activity against Pseudomonas aeruginosa ATCC 27853 assessed as bacterial growth inhibition incubated for 18 hrs by microdilution method. Type of assay: functional.
The next assay concerns Klebsiella pneumoniae. The assay can be described thus: Antimicrobial activity against Klebsiella pneumoniae ATCC 314588 assessed as bacterial growth inhibition incubated for 18 hrs by microdilution method. The assay is classed as functional.

With `C[C@H]1COc2c(N3CCN(C)CC3)c(F)cc3c(=O)c(C(=O)O)cn1c23.C[C@H]1COc2c(N3CCN(C)CC3)c(F)cc3c(=O)c(C(=O)O)cn1c23.O` [LEVOFLOXACIN], the MIC in the assay with Staphylococcus aureus [1] was found to be 0.125 µg/mL.
`COc1[nH]nc2nncnc12`: in the assay with Staphylococcus aureus [2], the MIC amounted to 200 µg/mL (≈ 1320 µM).
As for `COc1c(N2C[C@@H]3CCCN[C@@H]3C2)c(F)cc2c(=O)c(C(=O)O)cn(C3CC3)c12` [MOXIFLOXACIN], the MIC in the assay with Staphylococcus aureus [3] amounted to 1 µg/mL (≈ 2.49 µM); with Staphylococcus aureus [1], 0.06 µg/mL (≈ 0.149 µM).
As for `CC(C)(C)c1cc(NC(=O)c2cccc(F)c2)n(-c2ccc(Cl)cc2)n1`, the MIC in the assay on Staphylococcus aureus [4] amounted to 3.12 µg/mL (≈ 8.39 µM).
With `COc1cc(/C=C/c2cc(/C=C/c3ccc(OCC(=O)N[C@H](C)c4ccccc4)c(OC)c3)[nH]n2)ccc1OCC(=O)N[C@H](C)c1ccccc1`, in the assay with Staphylococcus aureus [5], the MIC came out at 10 µM (≈ 6.87 µg/mL).
For `O=C(O)c1ccc(-n2cc(/C=N/Nc3ccc([N+](=O)[O-])cc3)c(-c3cccc(F)c3)n2)cc1`, the MIC with Staphylococcus aureus [6] was 0.78 µg/mL (≈ 1.75 µM).
For `CCCc1c(-c2ccc(O)cc2)nn(-c2ccc(O)cc2)c1-c1ccc(O)cc1` [PROPYLPYRAZOLETRIOL], the MIC in the assay with Staphylococcus aureus [7] and in the assay with Staphylococcus aureus [8] was 8 µg/mL (≈ 20.7 µM) each time.
On to `COc1cc(/C=C/c2cc(/C=C/c3ccc(OCC(=O)N[C@@H](C)c4ccccc4)c(OC)c3)[nH]n2)ccc1OCC(=O)N[C@@H](C)c1ccccc1`, for which the MIC in the assay on Staphylococcus aureus [5] worked out at 10 µM (≈ 6.87 µg/mL).
Regarding `COc1c(N2CCNC(C)C2)c(F)cc2c(=O)c(C(=O)O)cn(C3CC3)c12` (stereo not given) [GATIFLOXACIN], the MIC with Staphylococcus aureus [1] turned out to be 0.06 µg/mL (≈ 0.16 µM).
Turning to `CC(=O)c1nn(-c2ccc([N+](=O)[O-])cc2)cc1C(=O)c1cc2cc(CN3CCN(Cc4ccc5oc(C(=O)c6cn(-c7ccc([N+](=O)[O-])cc7)nc6C(C)=O)cc5c4)CC3)ccc2o1`, the results for the MBC with Staphylococcus aureus [9], in the assay with Staphylococcus aureus [11] and in the assay with Staphylococcus aureus [12] were 18.1 µM (≈ 15.6 µg/mL), 36.2 µM (≈ 31.2 µg/mL) and 36.2 µM, respectively. Also, the MIC in the assay with Staphylococcus aureus [10] is 18.1 µM and 9 µM; in the assay with Staphylococcus aureus [12], 9 µM.
As to `CC(=O)c1c(N2Cc3nn(C)c(N)c3C2)c(F)cc2c(=O)c(C(=O)O)cn(C3CC3)c12`, the MIC in the assay on Staphylococcus aureus [1] was found to be 0.125 µg/mL (≈ 0.294 µM).
`Cc1nn(-c2ccc(Cl)cc2Cl)c(Oc2ccc(Cl)cc2Cl)c1C1N=C(N)NC(NCCc2ccccc2)=N1` (stereo not given) displayed an inhibition in assay [13] of 43%. Moreover, the MIC in the assay on Staphylococcus aureus [3] worked out at 0.5 µg/mL (≈ 0.829 µM).
Turning to `Cc1nn(-c2ccccc2)c(Cl)c1/C=C(\Br)C(=O)C1C(=O)N(C)C(=O)N(C)C1=O`, the MIC with Staphylococcus aureus [14] turned out to be 25 µg/mL (≈ 52.1 µM).
On to `c1ccc(-c2cnn3c4c(cnc23)CCCCCC4)cc1`, for which the “inhibition zone (IZ)” value in the assay on Staphylococcus aureus [15] was 50 mm. In the assay on Staphylococcus aureus [16], the MIC is 9 µg/mL.
Regarding `Cc1onc(-c2ccccc2)c1C(=O)N[C@@H]1C(=O)N2[C@@H]1SC(C)(C)[C@@H]2C(=O)O` [OXACILLIN], the minimal inhibitory concentration (MIC) in the assay with Staphylococcus aureus [17] is over 32 µg/mL; in the assay on Staphylococcus aureus [18], over 32 µg/mL; with Staphylococcus aureus [19], over 32 µg/mL; with Staphylococcus aureus [20] it was over 32 µg/mL; in the assay on Staphylococcus aureus [21], over 32 µg/mL; in the assay with Staphylococcus aureus [5] it was 64 µM (≈ 25.7 µg/mL). Further, the MIC with Staphylococcus aureus [22] was over 32 µg/mL.
`O=C(O)c1cn(C2CC2)c2cc(N3CCNCC3)c(F)cc2c1=O` [CIPROFLOXACIN]: the MIC in the assay on Staphylococcus aureus [23] was 1.84 µg/mL (≈ 5.55 µM); with Escherichia coli it was over 1.8 µg/mL; in assay [25], over 1.8 µg/mL; with Pseudomonas aeruginosa, over 1.8 µg/mL; in the assay on Klebsiella pneumoniae, over 1.8 µg/mL. In the assay with Staphylococcus aureus [24], the MBC was found to be 625 µg/mL (≈ 1890 µM).
